These results are taken from patent publication EP4600243A2, “NOVEL BICYCLIC HETEROCYCLYL COMPOUNDS AND USE THEREOF” (Jeil Pharmaceutical Co., Ltd., priority 2022, dated 2024).

SMILES strings stand for the structures.

In the test the target is T1, protein-protein interaction between SOS1 and KRAS G12C (Homo sapiens, UniProt Q07889).
T1 construct: purchased Cisbio 64KRASG12PEG
T1 sequence (Q07889 1-1333): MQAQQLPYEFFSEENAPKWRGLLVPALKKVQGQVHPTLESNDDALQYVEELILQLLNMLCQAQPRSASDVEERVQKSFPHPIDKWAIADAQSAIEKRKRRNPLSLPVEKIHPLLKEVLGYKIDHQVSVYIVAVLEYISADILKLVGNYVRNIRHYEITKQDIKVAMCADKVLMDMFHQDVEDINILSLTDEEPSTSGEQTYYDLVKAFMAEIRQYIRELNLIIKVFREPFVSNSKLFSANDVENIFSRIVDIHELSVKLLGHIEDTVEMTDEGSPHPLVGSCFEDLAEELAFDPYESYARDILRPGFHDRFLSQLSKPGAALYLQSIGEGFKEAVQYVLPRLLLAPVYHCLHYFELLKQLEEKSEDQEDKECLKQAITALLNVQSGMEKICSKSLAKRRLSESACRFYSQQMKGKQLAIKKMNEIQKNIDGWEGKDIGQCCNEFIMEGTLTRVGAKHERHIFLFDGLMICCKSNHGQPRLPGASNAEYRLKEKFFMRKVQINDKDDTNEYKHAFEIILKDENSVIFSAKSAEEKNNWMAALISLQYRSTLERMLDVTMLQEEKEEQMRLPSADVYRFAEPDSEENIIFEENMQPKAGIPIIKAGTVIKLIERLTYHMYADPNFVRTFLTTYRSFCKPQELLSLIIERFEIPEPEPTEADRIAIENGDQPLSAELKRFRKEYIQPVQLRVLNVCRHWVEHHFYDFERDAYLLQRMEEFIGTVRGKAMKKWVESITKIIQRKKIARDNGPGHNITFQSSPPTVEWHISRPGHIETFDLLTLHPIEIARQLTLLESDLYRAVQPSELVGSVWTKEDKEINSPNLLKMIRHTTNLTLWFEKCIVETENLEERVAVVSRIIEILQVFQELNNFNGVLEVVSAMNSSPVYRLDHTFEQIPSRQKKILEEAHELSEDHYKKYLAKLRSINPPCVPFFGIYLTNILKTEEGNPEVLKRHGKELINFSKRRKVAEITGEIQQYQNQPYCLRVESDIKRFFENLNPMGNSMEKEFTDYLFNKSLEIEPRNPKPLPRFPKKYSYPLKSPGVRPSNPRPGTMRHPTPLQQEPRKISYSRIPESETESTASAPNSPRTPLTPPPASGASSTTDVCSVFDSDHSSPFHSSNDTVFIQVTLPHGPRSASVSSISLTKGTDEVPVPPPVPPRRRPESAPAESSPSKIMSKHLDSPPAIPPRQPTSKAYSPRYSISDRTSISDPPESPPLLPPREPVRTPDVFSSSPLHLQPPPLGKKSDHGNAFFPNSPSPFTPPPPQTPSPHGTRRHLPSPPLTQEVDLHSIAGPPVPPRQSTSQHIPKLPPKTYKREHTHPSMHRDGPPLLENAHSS
Put plainly: KRAS::SOS1 HTRF binding analysis (KRAS G12C/SOS1 binding kit). Conditions: compound at 0.1 uM. As to the method: 1-1. KRAS::SOS1 HTRF binding analysis
An SOS1 inhibitory ability of the example compounds of the present invention was confirmed by identifying the effect of inhibiting a protein-protein interaction between SOS1 and KRAS G12C of the compounds according to examples of the present invention.
Specifically, a KRAS G12C/SOS1 binding kit (64KRASG12PEG, Cisbio, France) was purchased and used. 2 µℓ of Tag1-KRAS G12C and 2 µℓ of GTP were premixed and dispensed 4 µl each into a 384 well plate (6007290, PerkinElmer, USA). 2 µℓ of the compound and 4 µℓ of Tag2-SOS1 were placed and then 10 µℓ of premixed Anti-Tag1 XL665 antibody and Anti-Tag2 Tb cryptate antibody was dispensed to each well. The plates were sealed and allowed to react at room temperature for one hour and 40 minutes, and then 665 nm wavelength and 620 nm wavelength were measured using a HTRF® compatible reader (Synergy H4, BioTeK, USA), and the ratio of receptor and donor emission signals for each well was calculated as 665 nm/620 nm×10^4.
(+++: more than 70 to 100% inhibition, ++: more than 40 to 70% inhibition, +: 0 to 40% inhibition) [Table 4]
(In general: TR-FRET usually uses a lanthanide donor and a delayed reading to cut background.)
Regarding `C[C@@H](Nc1cnnc2ccc(N3CCC(C)(O)CC3)cc12)c1cccc(C(F)F)c1` [Example 43, (R)-1-(4-((1-(3-(difluoromethyl)phenyl)ethyl)amino)cinnolin-6-yl)-4-methylpiperidin-4-ol], the inhibition at 0.1 µM lay within 0 to 40%.
To `C[C@@H](Nc1cnnc2ccc(N3CC4CCC(C3)O4)cc12)c1cccc(C(F)F)c1F` [Example 16, 6-(8-oxa-3-azabicyclo[3.2.1]octan-3-yl)-N-((R)-1-(3-(difluoromethyl)-2-fluorophenyl)ethyl)cinnolin-4-amine] belongs 0 to 40%; to `C[C@@H](Nc1cnnc2ccc(N3CC[C@@H](O)C3)cc12)c1cccc(C(F)F)c1F` [Example 27, (R)-1-(4-(((R)-1-(3-(difluoromethyl)-2-fluorophenyl)ethyl)amino)cinnolin-6-yl)pyrrolidin-3-ol], 40 to 70%; to `C[C@@H](Nc1cnnc2ccc(N[C@H]3CCNC3)cc12)c1cccc(C(F)F)c1F` [Example 40, N4-((R)-1-(3-(difluoromethyl)-2-fluorophenyl)ethyl)-N6-((S)-pyrrolidin-3-yl)cinnolin-4,6-diamine], 40 to 70%.
In the case of `C[C@@H](Nc1cnnc2ccc(N3C[C@H]4C[C@@H]3CO4)cc12)c1cccc(C(F)F)c1` [Example 44, 6-((1R,4R)-2-oxa-5-azabicyclo[2.2.1]heptan-5-yl)-N-((R)-1-(3-(difluoromethyl)phenyl)ethyl)cinnolin-4-amine], the inhibition at 0.1 µM lay within 0 to 40%.
Then `C[C@@H](Nc1cnnc2ccc(N3CC4CC(C3)O4)cc12)c1cccc(C(F)F)c1F` [Example 12, 6-(6-oxa-3-azabicyclo[3.1.1]heptan-3-yl)-N-((R)-1-(3-(difluoromethyl)-2-fluorophenyl)ethyl)cinnolin-4-amine], with 40 to 70%; and `Cc1c([C@@H](C)Nc2cnnc3ccc(N4CC5(CN(C)C5)C4)cc23)cccc1C(F)(F)F` [Example 49, (R)-N-(1-(2-methyl-3-(trifluoromethyl)phenyl)ethyl)-6-(6-methyl-2,6-diazaspiro[3.3]heptan-2-yl)cinnolin-4-amine], with 0 to 40%; and `Cc1c(C#N)cccc1[C@@H](C)Nc1cnnc2ccc(C3=CCN(C)CC3)cc12` [Example 52, (R)-2-methyl-3-(1-(6-(1-methyl-1,2,3,6-tetrahydropyridin-4-yl)cinnolin-4-ylamino)ethyl)benzonitrile], with 0 to 40%.
To `C[C@@H](Nc1cnnc2ccc(N[C@H]3CCOC3)cc12)c1cccc(C(F)F)c1F` [Example 36, N4-((R)-1-(3-(difluoromethyl)-2-fluorophenyl)ethyl)-N6-((S)-tetrahydrofuran-3-yl)cinnolin-4,6-diamine] belongs 0 to 40%; to `CO[C@@H]1CCCN(c2ccc3nncc(N[C@H](C)c4cccc(C(F)F)c4F)c3c2)C1` [Example 23, N-((R)-1-(3-(difluoromethyl)-2-fluorophenyl)ethyl)-6-((R)-3-methoxypiperidin-1-yl)cinnolin-4-amine], 0 to 40%; to `C[C@@H](Nc1cnnc2ccc(N3C[C@H]4C[C@@H]3CO4)cc12)c1cccc(C(F)F)c1F` [Example 13, 6-((1R,4R)-2-oxa-5-azabicyclo[2.2.1]heptan-5-yl)-N-((R)-1-(3-(difluoromethyl)-2-fluorophenyl)ethyl)cinnolin-4-amine], 40 to 70%.
To `C[C@@H](Nc1cnnc2ccc(N3C[C@@H]4C[C@H]3CO4)cc12)c1cccc(C(F)F)c1F` [Example 14, 6-((1S,4S)-2-oxa-5-azabicyclo[2.2.1]heptan-5-yl)-N-((R)-1-(3-(difluoromethyl)-2-fluorophenyl)ethyl)cinnolin-4-amine] belongs 0 to 40%; to `C[C@@H](Nc1cnnc2ccc(N3CC4CC(C3)O4)cc12)c1cccc(F)c1F` [Example 56, 6-(6-oxa-3-azabicyclo[3.1.1]heptan-3-yl)-N-((R)-1-(2,3-difluorophenyl)ethyl)cinnolin-4-amine], 0 to 40%; to `COC1CN(c2ccc3nncc(N[C@H](C)c4cccc(C(F)F)c4F)c3c2)C1` [Example 31, (R)-N-(1-(3-(difluoromethyl)-2-fluorophenyl)ethyl)-6-(3-methoxyazetidin-1-yl)cinnolin-4-amine], 0 to 40%.
Take `C[C@@H](Nc1cnnc2ccc(N3CCC(O)CC3)cc12)c1cccc(C(F)F)c1F` [Example 18, (R)-1-(4-((1-(3-(difluoromethyl)-2-fluorophenyl)ethyl)amino)cinnolin-6-yl)piperidin-4-ol]: the inhibition at 0.1 µM is 70 to 100%.
Then `C[C@@H](Nc1cnnc2ccc(N3CC[C@H](O)C3)cc12)c1cccc(C(F)F)c1F` [Example 28, (S)-1-(4-(((R)-1-(3-(difluoromethyl)-2-fluorophenyl)ethyl)amino)cinnolin-6-yl)pyrrolidin-3-ol], with 0 to 40%.
To `C[C@@H](Nc1cnnc2ccc(N3CCN(C(=O)C4COC4)CC3)cc12)c1cccc(C(F)F)c1F` [Example 41, (R)-(4-(4-(1-(3-(difluoromethyl)-2-fluorophenyl)ethylamino)cinnolin-6-yl)piperazin-1-yl)(oxetan-3-yl)methanone] belongs 70 to 100%.
As to `C[C@@H](Nc1cnnc2ccc(N[C@@H]3CCN(C)C3)cc12)c1cccc(C(F)F)c1F` [Example 38, N4-((R)-1-(3-(difluoromethyl)-2-fluorophenyl)ethyl)-N6-((R)-1-methylpyrrolidin-3-yl)cinnolin-4,6-diamine], the inhibition at 0.1 µM was in the range of 40 to 70%.
To `C[C@@H](Nc1cnnc2ccc(N3CCC(N(C)C)CC3)cc12)c1cccc(C(F)F)c1F` [Example 6, (R)-N-(1-(3-(difluoromethyl)-2-fluorophenyl)ethyl)-6-(4-(dimethylamino)piperidin-1-yl)cinnolin-4-amine] belongs 40 to 70%.
As for `C[C@@H](Nc1cnnc2ccc(N3CC(O)C3)cc12)c1cccc(C(F)F)c1F` [Example 30, (R)-1-(4-((1-(3-(difluoromethyl)-2-fluorophenyl)ethyl)amino)cinnolin-6-yl)azetidin-3-ol], the inhibition at 0.1 µM fell in the range of 0 to 40%.
With `C[C@@H](Nc1cnnc2ccc(N3C[C@H]4COC[C@H]4C3)cc12)c1cccc(C(F)F)c1F` [Example 29, N-((R)-1-(3-(difluoromethyl)-2-fluorophenyl)ethyl)-6-((3 aR,6aS)-tetrahydro-1H-furo[3,4-c]pyrrol-5(3H)-yl)cinnolin-4-amine], the inhibition at 0.1 µM was 40 to 70%.
Then `C[C@@H](Nc1cnnc2ccc(N[C@@H]3CCOC3)cc12)c1cccc(C(F)F)c1F` [Example 35, N4-((R)-1-(3-(difluoromethyl)-2-fluorophenyl)ethyl)-N6-((R)-tetrahydrofuran-3-yl)cinnolin-4,6-diamine], with 0 to 40%; and `CO[C@H]1CCCN(c2ccc3nncc(N[C@H](C)c4cccc(C(F)F)c4F)c3c2)C1` [Example 24, N-((R)-1-(3-(difluoromethyl)-2-fluorophenyl)ethyl)-6-((S)-3-methoxypiperidin-1-yl)cinnolin-4-amine], with 0 to 40%; and `C[C@@H](Nc1cnnc2ccc(N3CC(C)(O)C3)cc12)c1cccc(C(F)F)c1F` [Example 32, (R)-1-(4-((1-(3-(difluoromethyl)-2-fluorophenyl)ethyl)amino)cinnolin-6-yl)-3-methylazetidin-3-ol], with 0 to 40%.

The inhibition is the change of the read-out against control, counted positive when it falls.
